Here are results for 19 molecules from US20040014764A1, “N-myristoyltransferase inhibitor compositions and methods of use” (priority 2002, published 2004).

In general, inhibition refers to how much of the control response was suppressed.

The target in test [1] is T1, recombinant human NMT (Homo sapiens, UniProt P30419).
T1 sequence (P30419 1-496): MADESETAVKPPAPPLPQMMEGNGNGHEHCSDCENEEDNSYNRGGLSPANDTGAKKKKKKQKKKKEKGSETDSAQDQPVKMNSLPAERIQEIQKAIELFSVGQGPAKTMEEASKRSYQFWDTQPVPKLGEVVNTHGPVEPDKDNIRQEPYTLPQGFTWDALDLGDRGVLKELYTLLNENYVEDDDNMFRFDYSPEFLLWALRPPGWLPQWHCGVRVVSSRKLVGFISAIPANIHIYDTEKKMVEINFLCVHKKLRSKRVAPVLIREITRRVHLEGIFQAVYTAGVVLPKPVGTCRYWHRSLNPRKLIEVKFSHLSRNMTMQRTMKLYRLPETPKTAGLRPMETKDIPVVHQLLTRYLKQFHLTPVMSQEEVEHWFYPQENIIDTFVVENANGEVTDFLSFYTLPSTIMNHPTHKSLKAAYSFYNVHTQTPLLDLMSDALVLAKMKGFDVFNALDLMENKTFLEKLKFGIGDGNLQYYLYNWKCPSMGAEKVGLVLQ
Description: NMT screening assay with purified recombinant GST-NMT-1, [3H]-myristoyl-CoA and biotinylated peptide.
Description: Development of the NMT screening assay. […] The cDNA encoding enzymatically active human NMT-1 was subcloned into the pGEX bacterial expression evector, producing an NMT-glutathione-S-transferase4 (GST) fusion protein. This protein was expressed in E. coli using methods well known to those trained in the art, purified using a glutathione resin, and stored at −80° C. until use. Enzyme activity was measured using the recombinant NMT, a peptide of the sequence [sequence]-biotin, wherein amino acids are designated by their recognized single letter code and the terminal lysine residue is conjugated with biotin, [^3H]-myristoyl-CoA, and a test compound or the solvent alone (DMSO). Reaction mixtures are incubated for a specific period of time in 96-well plates coated with streptavidin, which may be purchased from commercial sources including Sigma Chemical Company. […] The streptavidin-biotin interaction can then be disrupted with the addition of 0.1 M glycine, pH 2.8, and the solution containing [^3H]myristoyl-peptide can be transferred to scintillation vials. Alternately, determination of the amount of [^3H]myristoyl-peptide in the samples can be determined using scintillation proximity technology according to methods well known to those who practice the art.
Each compound was tested at a final concentration of 5 μg/ml, which corresponds to concentrations of 10-20 μM. Samples that inhibited NMT activity by at least 60% were then deconvoluted, where each of the 8 compounds was analyzed individually.

In test [2] the test system is T24 human bladder carcinoma cells. Description: Cytotoxicity assay, sulforhodamine B binding. The conditions noted are these: T-24, 48 h, read-out: Cytotoxicity IC50.
Description: To determine the abilities of NMT inhibitors to affect the growth of hyperproliferative cells, cytotoxicity assays were performed using the T24 human bladder carcinoma cell line. […] In these assays, T24 cells growing in tissue culture in the presence of 10% fetal bovine serum are treated with varying concentrations of a test compound for 48 hours. At the end of the treatment period, the number of surviving tumor cells is quantified using any of a variety of methods well known in the field. In these, experiments, the number of surviving cells was determined using the sulforhodamine B binding assay.
Test [3] relates to panel of human tumor cell lines. Description: Proliferation of a panel of human tumor cell lines (summary). The following applies: range over the 8 cell lines of TABLE 3, read-out: IC50s across the tumor cell line panel. Type of test: cell-based. The method, then:
(§1) Antiproliferative effects of compound 537.
(§2) Additionally, the effects of compound 537 on the proliferation of a panel of human tumor cell lines were determined. […] Of interest, colon-derived HT29 cells were most sensitive to compound 537, and previous work has indicated a close association of activation of Src (which requires myristoylation for activity) and colon cancer (Raju et al., Exp. Cell Res. 235: 145 (1997)).

Another test relates to HepG2. Description: Antiproliferative activity toward human tumor cell lines. Type of test: cell-based. The conditions noted are these: HepG2, Liver, mean ± SEM of 4 experiments. The method, then:
as §1, §2

The test system of another test is HT29. The test is described as above. It counts as cell-based. The following applies: HT-29, HT29, Colon, mean ± SEM of 4 experiments. The procedure: as §1, §2
The next test concerns MDA-MB-231. The description is as above. The conditions noted are these: MDA-MB-231, Breast, mean ± SEM of 4 experiments. It counts as cell-based. The method, then: as §1, §2
The subject of a further test is DU145. The test is described as above. It counts as cell-based. The conditions noted are these: DU-145, DU145, Prostate, mean ± SEM of 4 experiments. The method, then:
as §1, §2

The next test concerns SKOV3. Described as above. Type of test: cell-based. The conditions noted are these: SK-OV-3, SKOV3, Ovary, mean ± SEM of 4 experiments. The method, then:
as §1, §2

A further test concerns A-498. The description is as above. It counts as cell-based. The following applies: A498, A-498, Kidney, mean ± SEM of 4 experiments. The procedure: as §1, §2
A further test concerns Panc-1. The description is as above. Type of test: cell-based. The following applies: Panc-1, Pancreas, mean ± SEM of 4 experiments. The procedure: as §1, §2
In the next test the test system is MCF-7. The description is as above. Type of test: cell-based. The conditions noted are these: MCF7, MCF-7, Breast, mean ± SEM of 4 experiments. The method, then:
as §1, §2

In the next test the test system is endogenous NMT. The test can be described thus: N-myr-GFP localization in transfected CV-1 cells (fluorescence microscopy). It counts as cell-based, monkey. The method, then: Cellular effects of COPP compounds. […] To determine their efficacy in intact cells, a novel assay was developed in which the N-terminus of enhanced green fluorescent protein (GFP) was modified to allow its myristoylation (N-myr-GFP) by endogenous NMT. To begin, the myristoylation sequence […] was added to the N-terminus of green fluorescent protein (N-myr-GFP) using techniques familiar to those practiced in the art. Since GFP is intrinsically fluorescent, the sites of its intracellular distribution can be visualized using fluorescence microscopy. When a plasmid containing the N-myr-GFP sequence is transfected into CV-1 cells, the GFP encoded by this construct is myristoylated by endogenous NMT causing it to localize to the plasma membrane, as indicated by the bright fluorescence at the cell periphery (FIG. 2). […] This method provides evidence that the inhibitors detected in the screen with recombinant NMT can also block endogenous NMT activity in whole cells.

The next test has as its target T2, GST-hNMT-1 (Homo sapiens, UniProt P30419).
T2 construct: made in house; host or cells: E. coli
T2 sequence (P30419 1-496): T1 sequence (P30419 1-496)
Description: Peptide and myristoyl-CoA substrate competition experiments (Michaelis-Menten). Type of test: biochemical. The procedure:
Development of the NMT screening assay.
Mechanism of inhibition of NMT by COPP compounds. The mechanism of inhibition by compound 537 was examined using peptide and myristoyl-CoA substrate competition experiments with GST-hNMT-l. In the absence of inhibitor, the KM for myristoyl-CoA compares very well with the literature value of 2.6 μM (Rocque et al., J Biol. Chem. 268: 9964 (1993)). […] However, it is well established that the affinity for the peptide is highly sequence-sensitive, so that KMS >100 μM are not unusual. For studies of the ability of compound 537 to interact with the peptide-binding site of NMT, the peptide concentration was varied from 0 to 500 μM, while the myristoyl-CoA concentration was kept constant in the assays. The presence of compound 537 at its IC50 concentration […] the KM for the peptide relative to the solvent control. […] To determine the effects of compound 537 on the myristoyl-CoA binding site, the concentration of myristoyl-CoA was varied from 0 to 100 μM, while the peptide concentration was held constant in the assays. […] Overall, these kinetic analyses indicate that compound 537, and most likely the rest of the COPP family, inhibit NMT activity by competing with the substrate peptide for binding to the enzyme.

The target of test [4] is T1, recombinant human NMT. Also noted: made in house; host or cells: E. coli. The conditions noted are these: published value (Boutin et al. 1991); read-out: published IC50 concentration for NMT; cited from earlier work.

Read-outs that look alike come from different tables or passages of the source.

For `Cc1ccc2occ(CN3CCN4CCCC4C3C3CCCCC3)c(=O)c2c1` (stereo not drawn) [Compound 591], the IC50 on recombinant human NMT [1] was > 8000 µM; in [2] it was 9.7 µM.
As to `CC1=C(CCN2CCN3CCCC3C2C2CCCCC2)C(C)(C)CCC1` (stereo not drawn) [Compound 638], the values for the IC50 (on recombinant human NMT [1]; in test [2]) were 43 ± 4 µM and 1.4 µM, respectively.
The matching figures for `Brc1csc(CN2CCN3CCCC3C2C2CCCCC2)c1` (stereo not drawn) [Compound 555]: > 8000 µM and 1.2 µM.
For the molecule `COc1ccc2ccccc2c1CN1CCN2CCCC2C1C1CCCCC1` (stereo not drawn) [Compound 622], the values for the IC50 (on recombinant human NMT [1]; in test [2]) were 28 ± 8 µM and 1.5 µM, respectively.
Consider `CC1C2CCCN2CCN1Cc1cccc(Oc2ccc(Cl)cc2)c1` (stereo not drawn) [Compound 726, 2-[3-(4-chloro-phenoxy)-benzyl]-1-methyl-octahydro-pyrrolo[1,2-a]pyrazine], for which the figures for the IC50 (at recombinant human NMT [1]; in test [2]) were 40 ± 6 µM and 1.5 µM, respectively.
For the molecule `c1cncc(N2CCN3CCCC3C2C2CCCCC2)c1` (stereo not drawn) [Compound 522], the IC50 at recombinant human NMT [1] worked out at 590 ± 127 µM; in [2], 400 µM.
On to `CCn1c2ccccc2c2cc(CN3CCN4CCCC4C3C3CCCCC3)ccc21` (stereo not drawn) [Compound 537], for which the IC50 on recombinant human NMT [1] is 6 µM; in [3], 3.7 to 14.8 µM; with HepG2 it was 4.4 ± 1.2 µM; in the test on HT29 it was 3.7 ± 0.6 µM; with MDA-MB-231, 11.9 ± 1.3 µM; in the test on DU145, 14.8 ± 2.9 µM. In addition, the IC50 with SKOV3 worked out at 13.2 ± 3.6 µM; in the test on A-498 it was 5.8 ± 1.4 µM; with Panc-1, 12.6 ± 1.3 µM; in the test on MCF-7 it was 8 ± 0.9 µM; in [2], 1.8 µM. The “intracellular distribution of N-myr-GFP” value with endogenous NMT (micromolar concentrations) is reported as “displacement of N-myr-GFP to the cytosol”. Moreover, the “Peptide Vmax” value on GST-hNMT-1 (in presence of compound at its IC50 concentration, peptide varied 0 to 500 μM, myristoyl-CoA constant) stood at 0.076 ± 0.006 pmol/min. In addition, the “Myristoyl-CoA Vmax” value on GST-hNMT-1 (in presence of compound, myristoyl-CoA varied 0 to 100 μM, peptide constant) is 0.034 ± 0.001 pmol/min. Moreover, at GST-hNMT-1 (myristoyl-CoA competition), the “mechanism of inhibition with respect to the lipid substrate” value was “noncompetitive inhibitor”. At GST-hNMT-1 (peptide competition), the “mechanism of inhibition with respect to the peptide substrate” value is “competitive inhibitor”.
In the case of `O=[N+]([O-])c1ccc(-c2ccc(CN3CCN4CCCC4C3C3CCCCC3)o2)cc1` (stereo not drawn) [Compound 617], the IC50 amounted to 36 ± 4 µM at recombinant human NMT [1] and 4.6 µM in test [2].
For `C1CCC(C2C3CCCN3CCN2C2CCCCC2)CC1` (stereo not drawn) [Compound 624], the IC50 came out at 113 ± 7 µM on recombinant human NMT [1] and 1.6 µM in test [2].
Regarding `O=[N+]([O-])c1cccc(-c2ccc(CN3CCN4CCCC4C3C3CCCCC3)o2)c1` (stereo not drawn) [Compound 616], the IC50 was 41 ± 1 µM on recombinant human NMT [1] and 2.1 µM in [2].
In the same order, the values of `CC1C2CCCN2CCN1Cc1c2ccccc2c(Cl)c2ccccc12` (stereo not drawn) [Compound 766] are 47 ± 7 µM and 4.2 µM.
With `COc1ccc(CN2CCN3CCCC3C2C2CCCCC2)c2ccccc12` (stereo not drawn) [Compound 621], the IC50 stood at 35 ± 5 µM on recombinant human NMT [1] and 0.7 µM in test [2].
Consider `COc1ccccc1/C=C/CN1CCN2CCCC2C1C1CCCCC1` (stereo not drawn) [Compound 640], for which the figures for the IC50 (at recombinant human NMT [1]; in test [2]) were 1600 ± 200 µM and 2.8 µM, respectively.
On to `COc1ccc(CN2CCN3CCCC3C2C2CCCCC2)cc1` (stereo not drawn) [Compound 486], for which the IC50 on recombinant human NMT [1] was 419 ± 30 µM; in [2] it was 8.1 µM.
For the molecule `c1ccc2cc(N3CCN4CCCC4C3C3CCCCC3)ccc2c1` (stereo not drawn) [Compound 542], the IC50 at recombinant human NMT [1] was 42 ± 5 µM; in [2] it was 1.3 µM.
With `CCCCCCCCCCCCCC(=O)N[C@@H](Cc1ccccc1)C(=O)O` [myristoylphenylalanine, reference compound], the inhibition at 100 µM at recombinant human NMT [1] (read-out: inhibition of recombinant human NMT) is ~50%. In addition, the IC50 at recombinant human NMT [4] is 100 µM.
As for `CCCCCCCCCCCCC(O)C(=O)O` (stereo not drawn) [2-hydroxymyristic acid, reference compound], the “intracellular distribution of N-myr-GFP” value with endogenous NMT (millimolar concentrations) was “redistribution of GFP to the cytosol”.
For the molecule `O=[N+]([O-])c1ccccc1-c1ccc(CN2CCN3CCCC3C2C2CCCCC2)o1` (stereo not drawn) [Compound 615], the values for the IC50 (at recombinant human NMT [1]; in test [2]) were 45 ± 2 µM and 1.4 µM, respectively.
As for `c1cc2ccc3ccc(CN4CCN5CCCC5C4C4CCCCC4)c4ccc(c1)c2c34` (stereo not drawn) [Compound 629], the figures for the IC50 (at recombinant human NMT [1]; in [2]) were 70 ± 8 µM and 3 µM, respectively.
